Data: PubChem BioAssay (NCI)
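Test compounds were applied to cells in 96-well plates for 48 hours at 5 doses. GI50 is the concentration that inhibits growth by half. TGI denotes the concentration required for complete inhibition of growth.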

How the values were obtained:
Assay in all cases: DTP human tumour cell line panel, 48 h
786-0 renal = test system: 786-0 renal
A498 renal = test system: A498 renal
A549 NSCLC = test system: A549 NSCLC
ACHN renal = test system: ACHN renal
CAKI-1 renal = test system: CAKI-1 renal
CCRF-CEM leukemia = test system: CCRF-CEM leukemia
COLO 205 colon = test system: COLO 205 colon
DMS 273 small cell lung = test system: DMS 273 small cell lung
EKVX NSCLC = test system: EKVX NSCLC
HCT-116 colon = test system: HCT-116 colon
HCT-15 colon = test system: HCT-15 colon
HL-60(TB) leukemia = test system: HL-60(TB) leukemia
HOP-62 NSCLC = test system: HOP-62 NSCLC
HOP-92 NSCLC = test system: HOP-92 NSCLC
HT29 colon = test system: HT29 colon
IGROV1 ovarian = test system: IGROV1 ovarian
K-562 leukemia = test system: K-562 leukemia
KM12 colon = test system: KM12 colon
KM20L2 colon = test system: KM20L2 colon
LOX IMVI melanoma = test system: LOX IMVI melanoma
LXFL 529 NSCLC = test system: LXFL 529 NSCLC
M14 melanoma = test system: M14 melanoma
MOLT-4 leukemia = test system: MOLT-4 leukemia
NCI-H226 lung = test system: NCI-H226 lung
NCI-H23 lung = test system: NCI-H23 lung
NCI-H460 lung = test system: NCI-H460 lung
NCI-H522 lung = test system: NCI-H522 lung
OVCAR-3 ovarian = test system: OVCAR-3 ovarian
OVCAR-4 ovarian = test system: OVCAR-4 ovarian
OVCAR-5 ovarian = test system: OVCAR-5 ovarian
OVCAR-8 ovarian = test system: OVCAR-8 ovarian
RPMI-8226 leukemia = test system: RPMI-8226 leukemia
RXF 393 renal = test system: RXF 393 renal
RXF-631 renal = test system: RXF-631 renal
SF-268 CNS = test system: SF-268 CNS
SF-295 CNS = test system: SF-295 CNS
SF-539 CNS = test system: SF-539 CNS
SK-MEL-2 melanoma = test system: SK-MEL-2 melanoma
SK-MEL-28 melanoma = test system: SK-MEL-28 melanoma
SK-MEL-5 melanoma = test system: SK-MEL-5 melanoma
SK-OV-3 ovarian = test system: SK-OV-3 ovarian
SN12C renal = test system: SN12C renal
SNB-19 CNS = test system: SNB-19 CNS
SNB-75 CNS = test system: SNB-75 CNS
SNB-78 CNS = test system: SNB-78 CNS
SR leukemia = test system: SR leukemia
SW-620 colon = test system: SW-620 colon
TK-10 renal = test system: TK-10 renal
U251 CNS = test system: U251 CNS
UACC-257 melanoma = test system: UACC-257 melanoma
UACC-62 melanoma = test system: UACC-62 melanoma
UO-31 renal = test system: UO-31 renal
XF 498 CNS = test system: XF 498 CNS
DLD-1 colon = test system: DLD-1 colon
DMS 114 small cell lung = test system: DMS 114 small cell lung
HCC-2998 colon = test system: HCC-2998 colon
M19-MEL melanoma = test system: M19-MEL melanoma
MALME-3M melanoma = test system: MALME-3M melanoma

What does the source list for `CCCCCCCCCCCc1noc2c1C(=O)C(O)CC2` (centres undefined)?
TGI (786-0 renal): 34.1 µM; TGI (A498 renal): 88.5 µM; TGI (A549 NSCLC): 55 µM; TGI (ACHN renal): > 100 µM; TGI (CAKI-1 renal): > 100 µM; TGI (CCRF-CEM leukemia): 64.9 µM; TGI (COLO 205 colon): 83 µM; TGI (DMS 273 small cell lung): 30.4 µM; TGI (EKVX NSCLC): > 100 µM; TGI (HCT-116 colon): 41.6 µM; TGI (HCT-15 colon): 43.7 µM; TGI (HL-60(TB) leukemia): 65.5 µM; TGI (HOP-62 NSCLC): > 100 µM; TGI (HOP-92 NSCLC): 42.8 µM; TGI (HT29 colon): 33.2 µM; TGI (IGROV1 ovarian): > 100 µM; TGI (K-562 leukemia): 42.8 µM; TGI (KM12 colon): 57.1 µM; TGI (KM20L2 colon): 31.8 µM; TGI (LOX IMVI melanoma): 34.4 µM; TGI (LXFL 529 NSCLC): 33.1 µM; TGI (M14 melanoma): 94.6 µM; TGI (MOLT-4 leukemia): 65.7 µM; TGI (NCI-H226 lung): 35.9 µM; TGI (NCI-H23 lung): 31.9 µM; TGI (NCI-H460 lung): 37.7 µM; TGI (NCI-H522 lung): 40 µM; TGI (OVCAR-3 ovarian): 34.3 µM; TGI (OVCAR-4 ovarian): 33 µM; TGI (OVCAR-5 ovarian): 42.6 µM; TGI (OVCAR-8 ovarian): 35.8 µM; TGI (RPMI-8226 leukemia): 67.7 µM; TGI (RXF 393 renal): 27.5 µM; TGI (RXF-631 renal): 36.7 µM; TGI (SF-268 CNS): > 100 µM; TGI (SF-295 CNS): 39.6 µM; TGI (SF-539 CNS): 54.7 µM; TGI (SK-MEL-2 melanoma): 38.7 µM; TGI (SK-MEL-28 melanoma): 75.2 µM; TGI (SK-MEL-5 melanoma): 30.2 µM; TGI (SK-OV-3 ovarian): 94.8 µM; TGI (SN12C renal): 30.4 µM; TGI (SNB-19 CNS): 67.2 µM; TGI (SNB-75 CNS): 84.5 µM; TGI (SNB-78 CNS): 65.1 µM; TGI (SR leukemia): 78 µM; TGI (SW-620 colon): 35.6 µM; TGI (TK-10 renal): > 100 µM; TGI (U251 CNS): 28.3 µM; TGI (UACC-257 melanoma): 42.3 µM; TGI (UACC-62 melanoma): 33.8 µM; TGI (UO-31 renal): 71.2 µM; TGI (XF 498 CNS): 27 µM

What does the source list for `CC(C)OP(=O)(OC(C)C)C([CH2][Sn]([CH3])([CH3])[Cl])P(=O)(OC(C)C)OC(C)C`?
GI50 (786-0 renal): 16.7 µM; TGI (786-0 renal): 33.1 µM; GI50 (A498 renal): 19.3 µM; TGI (A498 renal): > 100 µM; GI50 (A549 NSCLC): 27.7 µM; TGI (A549 NSCLC): > 100 µM; GI50 (ACHN renal): 31 µM; TGI (ACHN renal): > 100 µM; GI50 (CAKI-1 renal): 19.9 µM; TGI (CAKI-1 renal): 55.7 µM; GI50 (CCRF-CEM leukemia): 20.7 µM; TGI (CCRF-CEM leukemia): 64.9 µM; GI50 (COLO 205 colon): 15.2 µM; TGI (COLO 205 colon): 29.1 µM; GI50 (DLD-1 colon): 36.8 µM; TGI (DLD-1 colon): > 100 µM; GI50 (DMS 114 small cell lung): 21.9 µM; TGI (DMS 114 small cell lung): 67 µM; GI50 (DMS 273 small cell lung): 19.8 µM; TGI (DMS 273 small cell lung): 53.5 µM; GI50 (EKVX NSCLC): 30.3 µM; TGI (EKVX NSCLC): 98 µM; GI50 (HCC-2998 colon): 22.6 µM; TGI (HCC-2998 colon): 40.3 µM; GI50 (HCT-116 colon): 19.7 µM; TGI (HCT-116 colon): 42.8 µM; GI50 (HCT-15 colon): 20.2 µM; TGI (HCT-15 colon): 47.4 µM; GI50 (HL-60(TB) leukemia): 4.56 µM; TGI (HL-60(TB) leukemia): 18.2 µM; GI50 (HOP-62 NSCLC): 20.9 µM; TGI (HOP-62 NSCLC): 40.4 µM; GI50 (HOP-92 NSCLC): 13.7 µM; TGI (HOP-92 NSCLC): 34.4 µM; GI50 (HT29 colon): 22.1 µM; TGI (HT29 colon): 79.2 µM; GI50 (IGROV1 ovarian): 24.5 µM; TGI (IGROV1 ovarian): 97.4 µM; GI50 (K-562 leukemia): 25.3 µM; TGI (K-562 leukemia): > 100 µM; GI50 (KM12 colon): 13.4 µM; TGI (KM12 colon): 41.9 µM; GI50 (KM20L2 colon): 17.5 µM; TGI (KM20L2 colon): 34.6 µM; GI50 (LXFL 529 NSCLC): 15 µM; TGI (LXFL 529 NSCLC): 29.4 µM; GI50 (M14 melanoma): 16.4 µM; TGI (M14 melanoma): 31.4 µM; GI50 (M19-MEL melanoma): 19.8 µM; TGI (M19-MEL melanoma): 49.9 µM; GI50 (MALME-3M melanoma): 16.3 µM; TGI (MALME-3M melanoma): 33.2 µM; GI50 (MOLT-4 leukemia): 18.2 µM; TGI (MOLT-4 leukemia): 46.2 µM; GI50 (NCI-H226 lung): 21.2 µM; TGI (NCI-H226 lung): 41.3 µM; GI50 (NCI-H23 lung): 18.1 µM; TGI (NCI-H23 lung): 44.3 µM; GI50 (NCI-H460 lung): 16 µM; TGI (NCI-H460 lung): 36.3 µM; GI50 (NCI-H522 lung): 6.6 µM; TGI (NCI-H522 lung): 23.5 µM; GI50 (OVCAR-3 ovarian): 20.2 µM; TGI (OVCAR-3 ovarian): 72.5 µM; GI50 (OVCAR-4 ovarian): 26.8 µM; TGI (OVCAR-4 ovarian): > 100 µM; GI50 (OVCAR-5 ovarian): 31.5 µM; TGI (OVCAR-5 ovarian): > 100 µM; GI50 (OVCAR-8 ovarian): 30.2 µM; TGI (OVCAR-8 ovarian): > 100 µM; GI50 (RPMI-8226 leukemia): 15.2 µM; TGI (RPMI-8226 leukemia): 35.1 µM; GI50 (RXF-631 renal): 38.3 µM; TGI (RXF-631 renal): > 100 µM; GI50 (SF-295 CNS): 19.7 µM; TGI (SF-295 CNS): 48.7 µM; GI50 (SF-539 CNS): 24.2 µM; TGI (SF-539 CNS): 51.5 µM; GI50 (SK-MEL-2 melanoma): 15.6 µM; TGI (SK-MEL-2 melanoma): 29.9 µM; GI50 (SK-MEL-28 melanoma): 21.3 µM; TGI (SK-MEL-28 melanoma): 74.9 µM; GI50 (SK-MEL-5 melanoma): 16.5 µM; TGI (SK-MEL-5 melanoma): 31 µM; GI50 (SK-OV-3 ovarian): 25.5 µM; TGI (SK-OV-3 ovarian): 64 µM; GI50 (SN12C renal): 27.9 µM; TGI (SN12C renal): > 100 µM; GI50 (SNB-19 CNS): 30.2 µM; TGI (SNB-19 CNS): 86.9 µM; GI50 (SNB-75 CNS): 19.3 µM; TGI (SNB-75 CNS): 43.3 µM; GI50 (SW-620 colon): 20.2 µM; TGI (SW-620 colon): 42.5 µM; GI50 (TK-10 renal): 23.2 µM; TGI (TK-10 renal): 69.9 µM; GI50 (U251 CNS): 20.4 µM; TGI (U251 CNS): 46.3 µM; GI50 (UACC-257 melanoma): 21.3 µM; TGI (UACC-257 melanoma): 65.3 µM; GI50 (UACC-62 melanoma): 14.1 µM; TGI (UACC-62 melanoma): 32.9 µM; GI50 (UO-31 renal): 19.9 µM; TGI (UO-31 renal): 43.2 µM; GI50 (XF 498 CNS): 14.5 µM; TGI (XF 498 CNS): 35.1 µM
